Data as given in patent EP0663912B1, “HETEROCYCLIC ETHER COMPOUNDS THAT ENHANCE COGNITIVE FUNCTION” (ABBOTT LABORATORIES, priority 1992, dated 1994).
pEC50: −log10 of the molar value. “And” between values parts separate entries of the source, which are not always exact repeats. Identical values can stand only once. Counter-ions that a name gives are not always drawn.

Columns and labels:
[1] = system: cholinergic channel receptors in PC12 cells; test: Whole-cell patch-clamp measurement of cholinergic channel activation in NGF-differentiated PC12 cells; type: cell-based, rat; details: for CURRENT AT PEAK: holding potential -60 mV
Source text: B. Protocols for the Determination of Cholinergic Channel Activation in PC12 Cells.
The cholinergic channel activator properties of Example 9 were investigated in PC12 cells using the whole-cell patch-clamp approach to measure current flow through ligand-gated membrane channels. […]
PC12 cells are a rat pheochromocytoma cell line that, upon treatment with nerve growth factor (NGF) differentiate into a neuronal phenotype and express nicotinic cholinergic channels (Greene & Tischier, Proceedings of the National Academy of Sciences of the United States of America, 73: 2424-2428, 1976; Dichter et al., Nature, 268: 501-504, 1977). Prominent neuronal cholinergic channel subunits in these cells are α3, α5, β2, β3 and β4 (Rogers et al., Journal of Neuroscience, 12: 4611-4623, 1992).
PC12 cells were obtained initially from ATCC and, using standard techniques were maintained in DMEM containing 10% heat-inactivated fetal calf serum and 5% heat-inactivated horse serum (37°C, 95% 02 & 5% CO2). Electrophysiologic recordings were obtained from differentiated (neurite-bearing) cells after 4-7 days exposure to NGF. For this purpose, the undifferentiated cells were first plated onto polylysine-coated 12 mm round glass coverslips in 60x15 mm plastic Petri dishes. After 20 minutes, differentiating medium was added (DMEM containing 100 ng/ml nerve growth factor, 5% heat-inactivated fetal calf serum and 2.5% heat-inactivated horse serum) and the cells were refed with this medium every 3 days.
The whole-cell patch-clamp technique was used to record voltage-activated currents and ligand-gated currents activated by substances applied through the U-tube flow-reversal technique (Fenwick et al., The Journal of Physiology (London) 331: 577-597, 1982). A coverslip bearing the cells was transferred from culture dish to the recording chamber (350 µL volume) and superfused (1 ml/min) at room temperature with an extracellular solution containing 150 mM NaCl, 2.8 mM KCI, 2.0 mM CaCl2, 1.0 mM MgCl2, ≥ 10 mM dextrose and 10 mM Na-HEPES buffer (7.3 pH, 325 mOsm). The intracellular (recording pipette) solution consisted of 140 mM KCl, 1.0 mM CaCl2, 2.0 mM MgCl2, 11 mM K-EGTA, and 10 mM K-HEPES buffer (7.3 pH, 315 mOsm). Osmolarities were adjusted using dextrose such that the extracellular solution was 10 mOsm hypertonic compared to the intracellular solution. Voltage-gated inward (sodium) and outward (potassium) currents were monitored throughout the experiment to determine establishment and maintenance of the whole-cell recording configuration.
The ligand was applied at least twice at each concentration in every cell, and applications were separated by ≥ 3 minutes to allow for recovery from desensitization, washout of the bathing solution, and re-equilibration of the U-tube. Antagonists were applied to the bathing solution through superfusion for 5-10 minutes prior to application of both antagonist and agonist through the U-tube flow reversal.

CD1 mice = test: Mouse elevated plus-maze (EPM) test of anxiolytic activity; type: in vivo
Source text: The mouse elevated plus-maze is a conflict test that probes anxiolytic activity of test compounds (Lister, Psychopharmacology, 1987, 92:180). It is based on the fact that exposure of mice to an elevated open arm leads to an avoidance response considerably stronger than that evoked by exposure to an enclosed arm.
The apparatus required to perform this test is made of plywood and consists of two open arms (17 X 8 cm) and two enclosed arms (17 X 8 X 15 cm) extending from a central platform (8 X 8 cm). It is mounted on a plywood base rising 39 cm above the floor. Mice are released on the central platform and the time spent in the open and enclosed arms is recorded during a 5 minute test period. The test compounds were administered to CD1 mice 15 minutes before the test. […]

[2] = Inhibitory (passive) avoidance (IA) test of learning/memory; type: in vivo
Source text: The inhibitory (or sometimes called passive) avoidance (IA) test is a well accepted animal model of learning/memory used to assess the activity of novel cholinergic agonists to enhance cognitive function (Wanibuchi et al., Eur. J. Pharmacol., 1990, 187:479). Animals are placed in the illuminated (12 X 14 X 11 cm) portion of a two-chambered box, from which they enter through a guillotine door to the larger (24 X 13.5 X 12 cm) dark compartment of the box. Entry to the dark compartment is accompanied by a mild (0.5 mA), brief (2 seconds) footshock. Initial latencies to cross are recorded, with an imposed 60 second ceiling. Following a 72 hour retention interval, animals are returned to the illuminated chamber, and latency to return to the dark compartment is again recorded, with a ceiling of 180 seconds. No footshock is administered on the test day.
Twelve animals were used in each group.

[3] = level of increase in time spent in the open arms, dose or dose range in brackets, given 15 minutes before 5 minute test
[4] = level of improvement in retention of the avoidance response, dose or dose range in brackets, IP 15 minutes before training, 12 animals per group

SMILES	EPM (CD1 mice; [3])	IA [2, 4]	further results
CN1CCCC1c1cccnc1 (single isomer, unassigned; (-)) [(-)-nicotine, reference compound]	–	–	CURRENT AT PEAK ([1]; 50 µM (-)-nicotine, individual PC12 cells A-E): 81 pA and 108 pA and 163 pA and 539 pA; CURRENT AT PEAK, MEAN±S.E.M. ([1]; 50 µM (-)-nicotine, n=5 PC12 cells): 235 ± 84 pA; pEC50 ([1]; PC12 cells current response): 4.28; EPM (CD1 mice; mouse, in vivo): significant [0.62-1.9]; time spent by the mice in the open arms of the maze (CD1 mice; mouse, in vivo): significant increase; IA ([2]; in vivo, ip): significant [0.19-0.62]
CN1CCC[C@H]1COc1cnccn1.O=C(O)/C=C/C(=O)O [Example 3, 2-(1-Methyl-2-(S)-pyrrolidinylmethyloxy)pyrazine fumarate]	NE [0.019-0.62]	NE [0.062-1.9]	–
CN1CCC[C@H]1COc1cccnc1.O=C(O)/C=C/C(=O)O [Example 4, 3-(1-Methyl-2-(S)-pyrrolidinylmethyloxy)pyridine fumarate]	NE [0.019-0.62]	significant [0.019]	–
Cl.c1cnc(OC[C@@H]2CCN2)cn1 [Example 7, 2-(2-(S)-azetidinylmethyloxy)pyrazine hydrochloride]	NE [0.019-0.62]	marginal	–
CN1CC[C@H]1COc1cnccn1.Cl [Example 8, 2-(1-Methyl-2-(S)-azetidinylmethyloxy)pyrazine hydrochloride]	NE [0.062- 1.9]	NE [0.062- 1.9]	–
Cl.c1cncc(OC[C@@H]2CCN2)c1 [Example 9, 3-(2-(S)-azetidinylmethyloxy)pyridine hydrochloride]	significant [0.0062]	NE [0.0019- 0.062]	CURRENT AT PEAK ([1]; 10 µM Example 9, individual PC12 cells A-E, hydrochloride): 165 pA and 173 pA and 484 pA and 283 pA and 702 pA; CURRENT AT PEAK, MEAN±S.E.M. ([1]; 10 µM Example 9, n=5 PC12 cells): 361 ±103 pA; RESPONSE RATIO Example 9 /(-)-NICOTINE ([1]; 10 µM Example 9 versus 50 µM (-)-nicotine in the same cell, individual PC12 cells A-E, hydrochloride, 10 µM): 203% and 161% and 171% and 173% and 130%; RESPONSE RATIO Example 9 /(-)-NICOTINE, MEAN±S.E.M. ([1]; 10 µM Example 9 versus 50 µM (-)-nicotine in the same cell, n=5): 168 ± 12%
CN1CC[C@H]1COc1cccnc1.Cl [Example 10, 3-(1-Methyl-2-(S)-azetidinylmethyloxy)pyridine hydrochloride]	significant [0.19]	marginal [0.62]	–
c1cncc(OC[C@@H]2CCCN2)c1 [Example 14, 3-(2-(S)-pyrrolidinylmethyloxy)pyridine furmarate]	marginal [0.019]	NE [0.019- 0.62]	–
Cl.Cl.Clc1cncc(OC[C@@H]2CCCN2)c1 [Example 15, 5-Chloro-3-(2-(S)-pyrrolidinylmethyloxy)pyridine dihydrochloride]	significant [0.062- 0.19]	significantly inhibits [0.062]	–
CN1CCC[C@H]1COc1cncc(Cl)c1.Cl.Cl [Example 16, 5-Chloro-3-(1-methyl-2-(S)-pyrrolidinylmethyloxy)pyridine dihydrochloride]	NE [0.019- 0.62]	significant [0.019]	–
Cc1ncccc1OC[C@@H]1CCCN1.Cl.Cl [Example 17, 2-Methyl-3-(2-(S)-pyrrolidinylmethyloxy)pyridine dihydrochloride]	significant [1.9]	significant [0.062, 0.62, 1.9]	–
Cc1ccc(OC[C@@H]2CCCN2)cn1.Cl.Cl [Example 18, 6-Methyl-3-(2-(S)-pyrrolidinylmethyloxy)pyridine dihydrochloride]	significant [0.062- 0.19]	NE [0.019- 0.62]	–
Cc1ccc(OC[C@@H]2CCCN2C)cn1.Cl.Cl [Example 19, 6-Methyl-3-(1-methyl-2-(S)-pyrrolidinylmethyloxy)pyridine dihydrochloride]	NE [0.019-62]	NE [0.019- 0.62]	–
CC1CC[C@@H](COc2cccnc2)N1C.Cl.Cl (stereo partly drawn) [Example 22, 3-(1-Methyl-5-methyl-2-(S)-pyrrolidinylmethyloxy)pyridine dihydrochloride]	NE [0.062-1.9]	NE [0.062- 1.9]	–
Cc1ncccc1OC[C@@H]1CCN1.Cl.Cl [Example 29, 2-Methyl-3-(2-(S)-azetidinylmethyloxy)pyridine dihydrochloride]	significant [0.62, 1.9]	significantly Inhibits [19]	–
c1csc(OCC23CCCN2CCC3)n1 [Example 34, 2-(1-(8-pyrrolizidinyl)methyloxy)thiazole hydrochloride salt]	marginal [0.62]	NE [0.062-1.9]	–
CNC1(C)C2CCC(C2)C1(C)C (centres unmarked) [Mecamylamine, reference compound]	–	–	inhibition of the responses to Example 9 ([1]; Mecamylamine 10 µM against Example 9 10 µM, n=4): ≥ 80%
